From article PMC10059756, “New Thienobenzo/Naphtho-Triazoles as Butyrylcholinesterase Inhibitors: Design, Synthesis and Computational Study” (International Journal of Molecular Sciences, 2023)

Columns and labels:
[1] = molecular target: BChE (EC 3.1.1.8, equine serum) (Equus caballus, UniProt P81908); assay: biochemical; format: biochemical; conditions: for IC50: Ellman's method, 5 min pre-incubation at 4 °C, triplicate
[2] = tested on: TNFα production; conditions: cited from earlier work; for anti-inflammatory activity: previous series
[3] = molecular target: AChE (EC 3.1.1.7, Electrophorus electricus) (Electrophorus electricus, UniProt O42275); assay: biochemical; format: biochemical; conditions: for IC50: Ellman's method, 5 min pre-incubation at 4 °C, triplicate
[4] = tested on: BChE; design: method as in PMID 35870364, PMID 35228009; conditions: previous research; cited from earlier work

Chain of BChE (EC 3.1.1.8, equine serum) (P81908 whole entry): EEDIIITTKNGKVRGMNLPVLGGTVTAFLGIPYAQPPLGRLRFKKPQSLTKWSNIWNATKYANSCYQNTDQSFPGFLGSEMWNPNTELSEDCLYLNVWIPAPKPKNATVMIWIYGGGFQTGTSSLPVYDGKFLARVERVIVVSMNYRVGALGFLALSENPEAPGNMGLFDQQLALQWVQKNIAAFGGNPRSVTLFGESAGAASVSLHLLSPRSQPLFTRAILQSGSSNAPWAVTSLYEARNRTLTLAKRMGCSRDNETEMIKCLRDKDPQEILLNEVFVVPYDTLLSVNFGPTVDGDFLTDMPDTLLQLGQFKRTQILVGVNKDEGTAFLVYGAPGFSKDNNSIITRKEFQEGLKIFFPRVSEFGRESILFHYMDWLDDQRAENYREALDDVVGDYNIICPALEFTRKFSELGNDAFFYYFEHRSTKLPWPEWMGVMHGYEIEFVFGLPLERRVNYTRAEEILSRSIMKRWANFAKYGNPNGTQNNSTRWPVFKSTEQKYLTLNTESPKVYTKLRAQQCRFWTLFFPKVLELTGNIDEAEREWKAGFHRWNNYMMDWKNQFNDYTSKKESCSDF
Chain of AChE (EC 3.1.1.7, Electrophorus electricus) (O42275 24-633): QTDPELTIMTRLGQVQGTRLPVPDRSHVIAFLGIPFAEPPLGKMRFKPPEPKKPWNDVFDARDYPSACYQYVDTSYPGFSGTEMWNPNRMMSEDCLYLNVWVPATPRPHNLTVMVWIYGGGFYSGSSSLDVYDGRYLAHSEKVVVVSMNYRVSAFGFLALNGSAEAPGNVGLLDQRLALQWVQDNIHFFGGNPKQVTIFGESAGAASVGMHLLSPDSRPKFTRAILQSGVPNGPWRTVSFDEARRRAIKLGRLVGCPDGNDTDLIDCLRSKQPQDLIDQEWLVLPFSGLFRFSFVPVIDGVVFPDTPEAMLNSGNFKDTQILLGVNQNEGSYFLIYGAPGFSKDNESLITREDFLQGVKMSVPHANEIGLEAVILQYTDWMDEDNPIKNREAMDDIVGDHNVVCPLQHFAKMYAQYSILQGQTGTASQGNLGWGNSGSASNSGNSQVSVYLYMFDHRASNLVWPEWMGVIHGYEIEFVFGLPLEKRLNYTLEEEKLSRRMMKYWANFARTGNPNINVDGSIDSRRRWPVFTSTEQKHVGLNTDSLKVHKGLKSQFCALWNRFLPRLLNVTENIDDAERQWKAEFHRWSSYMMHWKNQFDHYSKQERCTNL

CC(C)n1nnc2ccc3ccc(Cl)cc3c21 [Compound 1]
IC50 [1]: 39.6 µM
anti-inflammatory activity [2]: ten times weaker anti-inflammatory activity than 2
IC50 [3]: 59.9 µM

COc1ccc(Cn2nnc3ccc4ccc(OC)cc4c32)cc1 [Compound 2]
inhibitory activity toward BChE (in words) ([1]; final concentrations 10–500 μM): no inhibitory activity
anti-inflammatory activity [2]: best anti-inflammatory activity of all the tested compounds
inhibitory activity toward AChE (in words) ([3]; final concentrations 10–500 μM): no inhibitory activity

COc1ccc(Cn2nnc3ccc4sccc4c32)cc1 [Compound 3, 1-(4-methoxybenzyl)-1H-thieno[3′,2′:3,4]benzo[1,2-d][1,2,3]triazole]
IC50 [1]: 25.5 µM
IC50 [3]: 116 µM

Fc1ccc(Cn2nnc3ccc4sccc4c32)cc1 [Compound 4, 1-(4-fluorobenzyl)-1H-thieno[3′,2′:3,4]benzo[1,2-d][1,2,3]triazole]
IC50 [1]: 37.5 µM
IC50 [3]: 97 µM

c1csc(Cn2nnc3ccc4sccc4c32)c1 [Compound 5, 1-(thiophen-2-ylmethyl)-1H-thieno[3′,2′:3,4]benzo[1,2-d][1,2,3]triazole]
IC50 [1]: 23.4 µM
IC50 [3]: 119 µM

CCOC(=O)CCn1nnc2ccc3sccc3c21 [Compound 6, Ethyl 3-(1H-thieno[3′,2′:3,4]benzo[1,2-d][1,2,3]triazol-1-yl)propanoate]
IC50 [1]: 39.6 µM

FC(F)(F)c1ccc(Cn2nnc3ccc4sccc4c32)cc1 [Compound 7, 1-(4-(trifluoromethyl)benzyl)-1H-thieno[3′,2′:3,4]benzo[1,2-d][1,2,3]triazole]
IC50 [1]: > 150 µM
IC50 [3]: 140 µM

FC(F)(F)Oc1ccc(Cn2nnc3ccc4sccc4c32)cc1 [Compound 8, 1-(4-(trifluoromethoxy)benzyl)-1H-thieno[3′,2′:3,4]benzo[1,2-d][1,2,3]triazole]
IC50 [1]: 214 µM
IC50 [3]: 68 µM

COc1ccc(CCn2nnc3ccc4sccc4c32)cc1 [Compound 9, 1-(4-methoxyphenethyl)-1H-thieno[3′,2′:3,4]benzo[1,2-d][1,2,3]triazole]
IC50 [1]: 18.6 µM

OCCCCn1nnc2ccc3sccc3c21 [Compound 12, 4-(1H-thieno[3′,2′:3,4]benzo[1,2-d][1,2,3]triazol-1-yl)butan-1-ol]
IC50 [1]: 107 µM

Fc1ccc(Cn2nnc3c2-c2ccsc2CC3)cc1 [Compound 13, 1-(4-fluorobenzyl)-4,5-dihydro-1H-thieno[3′,2′:3,4]benzo[1,2-d][1,2,3]triazole]
IC50 [1]: 58 µM

FC(F)(F)c1ccc(Cn2nnc3c2-c2ccsc2CC3)cc1 [Compound 14, 1-(4-(trifluoromethyl)benzyl)-4,5-dihydro-1H-thieno[3′,2′:3,4]benzo[1,2-d][1,2,3]triazole]
IC50 [1]: > 150 µM
IC50 [3]: 118 µM

FC(F)(F)Oc1ccc(Cn2nnc3c2-c2ccsc2CC3)cc1 [Compound 15, 1-(4-(trifluoromethoxy)benzyl)-4,5-dihydro-1H-thieno[3′,2′:3,4]benzo[1,2-d][1,2,3]triazole]
IC50 [3]: 88.7 µM

COc1ccc(CCn2nnc3c2-c2ccsc2CC3)cc1 [Compound 16]
IC50 [1]: 119 µM
IC50 [3]: 145 µM

c1cc2c(s1)CCc1nnn(CCN3CCOCC3)c1-2 [Compound 17, 4-(2-(4,5-dihydro-1H-thieno[3′,2′:3,4]benzo[1,2-d][1,2,3]triazol-1-yl)ethyl)morpholine]
IC50 [3]: 45.6 µM

OCCCCn1nnc2c1-c1ccsc1CC2 [Compound 19, 4-(4,5-dihydro-1H-thieno[3′,2′:3,4]benzo[1,2-d][1,2,3]triazol-1-yl)butan-1-ol]
IC50 [1]: 74.1 µM

COc1ccc2c3c1O[C@H]1C[C@@H](O)C=C[C@@]31CCN(C)C2 [Galantamine, galantamine]
IC50 [4]: 7.9 µM

C=CCn1nnc2ccc3sccc3c21 [structure C, reference compound]
TNFα production inhibition ([2]; LPS-stimulated human PBMCs): good TNFα production inhibition
IC50 [4]: 3.8 µM
